Measurements published in BindingDB's records for doi:10.1016/j.bmcl.2010.04.142 (Glaxosmithkline, 2010).

Assays:
[1] = Antagonist activity at CCR2 in human THP1 cells assessed as inhibition of CCL2-induced chemotaxis in presence of 1% human serum
[2] = Antagonist activity at CCR2 in human THP1 cells assessed as inhibition of CCL2-induced chemotaxis in presence of 1% fetal bovine serum

| SMILES | Ki [1] [nM] | Ki [2] [nM] |
| --- | --- | --- |
| O=C(O)c1ccccc1Oc1c(F)cc(C(F)(F)F)cc1NS(=O)(=O)c1ccc(Cl)cc1 | 12600 | 63.1 |
| O=C(O)c1ccccc1Oc1ccccc1NS(=O)(=O)c1ccc(Cl)cc1 | 398 | 398 |
| O=C(O)c1c(F)cccc1Oc1ccc(C(F)(F)F)cc1NS(=O)(=O)c1ccc(Cl)cc1 | 10000 | 158 |
